Each block holds one compound with its values, some of them ahead of it. Ends that are not written are not given here.
Assays:
PTH1R [1] = molecular target: T1, PTH1R (Homo sapiens, UniProt Q03431); assay: Intracellular cAMP accumulation ([3H]adenine labelling) in HEK-PR1 cells; assay type: cell-based; settings: n = 3, read-out: cAMP pEC50 (converted)
T1 construct: expressed in transfected cells
T1 sequence (Q03431 27-593): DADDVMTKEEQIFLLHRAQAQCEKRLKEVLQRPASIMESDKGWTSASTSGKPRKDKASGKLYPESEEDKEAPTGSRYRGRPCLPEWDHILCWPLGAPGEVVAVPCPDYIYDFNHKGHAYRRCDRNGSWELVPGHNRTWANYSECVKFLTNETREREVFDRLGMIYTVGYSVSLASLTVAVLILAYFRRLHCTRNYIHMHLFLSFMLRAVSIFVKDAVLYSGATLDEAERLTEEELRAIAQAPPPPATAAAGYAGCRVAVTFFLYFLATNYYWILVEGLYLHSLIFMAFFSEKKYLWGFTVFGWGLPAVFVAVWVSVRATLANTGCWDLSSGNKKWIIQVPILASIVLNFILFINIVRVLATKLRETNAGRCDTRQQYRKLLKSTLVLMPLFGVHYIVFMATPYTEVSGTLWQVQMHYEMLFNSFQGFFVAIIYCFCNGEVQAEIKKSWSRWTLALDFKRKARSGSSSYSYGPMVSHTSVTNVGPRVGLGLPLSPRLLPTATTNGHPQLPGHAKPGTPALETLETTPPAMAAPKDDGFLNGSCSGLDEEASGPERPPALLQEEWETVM
Protocol: These assays were performed under conditions that replicate those used for measurements of [Ca^2+]c. HEK-PR1 cells were grown in 24-well plates until ∼90% confluent, [^3H]adenine (2 µCi per well) was then added to the culture medium. After 2 h at 37°C in 5% CO2, the medium was removed, cells were washed with HBS, and used for experiments in HBS at 20°C. […] The activity of the eluates was determined by liquid scintillation counting and amounts of [^3H]cAMP are expressed as percentages of the sum of the activities recovered in the [^3H]cAMP, [^3H]ADP and [^3H]ATP fractions.

PTH1R [2] = molecular target: T1, PTH1R; assay: Potentiation of carbachol-evoked Ca2+ signals by PTH analogues (fluo 4, HEK-PR1 cell populations); assay type: cell-based; settings: then carbachol 20 µM in Ca2+-free HBS, n = 3, read-out: peak [Ca2+]c pEC50 (converted)
Protocol: Briefly, confluent cultures of HEK-PR1 grown in 96-well plates were loaded with fluo 4 by incubation with fluo 4AM (2 µM, 20°C) in HEPES-buffered saline (HBS). […] After 1 h, loading medium was replaced with HBS, and after 45 min cells were used at 20°C for measurements of [Ca^2+]c.
Concentration–effect relationships were fitted to Hill equations using Prism version 5 (GraphPad, San Diego, CA, USA). Results are shown as mean±s.e.m. […] All statistical comparisons are therefore between experiments performed in parallel and analysed using paired Student's t-tests.

adenylyl cyclase = assay: Potentiation of carbachol-evoked Ca2+ signals by NKH477 in HEK-PR1 cells; assay type: cell-based; settings: n = 3; for Peak [Ca2+]c: NKH477 200 µM, then carbachol 20 µM; for pEC50 / Δ[Ca2+]c (maximal potentiated increase): carbachol 20 µM
Excerpt: (§1) Results are shown as mean±s.e.m.

PTH1R [3] = system: PTH1R; parameters: method as in 2 sources, one per row (each row's own in cited_ref): ref Cupp et al., 2013 and others listed in Table S1 ||| ref supplementary material Table S1; settings: Table S1, properties from the literature; ref Cupp et al., 2013 and others listed in Table S1; cited from earlier work
PTH1R [4] = molecular target: T1, PTH1R; assay: Ca2+ signals directly evoked by PTH analogues alone in HEK-PR1 cells; assay type: cell-based; settings: highest concentrations of the analogue, no carbachol (Fig. 1F)
Protocol: (§2) HEK-PR1 cells (∼10^5 PTH1R/cell) were cultured as described previously ([Tovey et al., 2008]). Measurements of [Ca^2+]c in cell populations were performed as previously described ([Tovey et al., 2008]). Briefly, confluent cultures of HEK-PR1 grown in 96-well plates were loaded with fluo 4 by incubation with fluo 4AM (2 µM, 20°C) in HEPES-buffered saline (HBS). HBS had the following composition (in mM): NaCl 135, KCl 5.9, MgCl2 1.2, CaCl2 1.5, HEPES 11.6 and glucose 11.5, pH 7.3. After 1 h, loading medium was replaced with HBS, and after 45 min cells were used at 20°C for measurements of [Ca^2+]c. A fluorescence plate-reader equipped to allow automated fluid additions (FlexStation 3, Molecular Devices, Sunnyvale, CA, USA) was used to record fluorescence at intervals of 1.44 s (excitation at 485 nm; emission at >525 nm) ([Tovey et al., 2006]).

HEK-PR1 cells [5] = assay: Cytosolic IP3 measured with FRET sensor in single HEK-PR1 cells; assay type: cell-based; settings: carbachol 1 mM; mean±s.e.m., n = 17 coverslips; SEM
Excerpt: A FRET sensor based on the IP3-binding core of IP3R1 ([Tovey and Taylor, 2013]) was used to measure cytosolic concentrations of IP3 in single HEK-PR1 cells under conditions similar to those used for measurements of [Ca^2+]c. The plasmid and properties of the sensor were as described previously ([Tovey and Taylor, 2013]). The sensor comprises the IP3-binding core attached through short linkers to enhanced cyan fluorescent protein (CFP) at its N-terminus and enhanced yellow fluorescent protein (YFP) at its C-terminus (see inset to Fig. 3A). IP3 binding causes a decrease in FRET. […] An Olympus IX71 inverted fluorescence microscope with a 40× objective and a 440 nm/520 nm dual band-pass dichroic mirror was used to record fluorescence from widefield images after excitation at 440 nm (to excite CFP). A Luca EMCCD camera (Andor Technology, Belfast, UK) was used to collect emitted fluorescence simultaneously at 1-s intervals from YFP (520–550 nm) and CFP (455–485 nm) using a Cairn Optosplit 2 image-splitter fitted with a 495-nm dichroic mirror. After correction for background fluorescence (determined from cytosolic areas of non-transfected cells), FRET ratios are presented as the ratio of CFP emission to YFP emission, so that the ratio increases (decreased FRET) after IP3 binding.

HEK-PR1 cells [6] = assay: Potentiation of carbachol-evoked Ca2+ signals by 8-Br-cAMP in HEK-PR1 cells; assay type: cell-based; settings: n = 3; for Peak [Ca2+]c: 8-Br-cAMP 10 mM, then carbachol 20 µM; for pEC50 / Δ[Ca2+]c (maximal potentiated increase): carbachol 20 µM
Excerpt: as §1

EPAC1 and EPAC2 = assay: Effect of EPAC antagonist ESI-09 on Ca2+ signals in HEK-PR1 cells; assay type: cell-based
Protocol: as §2

PTH1R [7] = settings: Table S1, properties from the literature; ref Cupp et al., 2013 and others listed in Table S1; cited from earlier work
PKA = assay: Effect of PKA inhibitor H89 on PTH(1-34)-evoked cAMP and potentiated Ca2+ signals; assay type: cell-based; settings: H89 10 µM, 20 min; for intracellular cAMP in H89-treated cells relative to matched control cells: mean±s.e.m., n = 3, SEM
Protocol: These assays were performed under conditions that replicate those used for measurements of [Ca^2+]c. HEK-PR1 cells were grown in 24-well plates until ∼90% confluent, [^3H]adenine (2 µCi per well) was then added to the culture medium. After 2 h at 37°C in 5% CO2, the medium was removed, cells were washed with HBS, and used for experiments in HBS at 20°C. Because many cells extrude cAMP into the extracellular medium ([Copsel et al., 2011]), reactions were terminated by first removing the medium and then adding ice-cold trichloroacetic acid (5% v/v, 1 ml). After 30 min on ice, [^3H]cAMP was separated from other ^3H-adenine nucleotides by sequential column chromatography on Dowex cation exchange resin and alumina as previously described ([Pantazaka et al., 2013]). The activity of the eluates was determined by liquid scintillation counting and amounts of [^3H]cAMP are expressed as percentages of the sum of the activities recovered in the [^3H]cAMP, [^3H]ADP and [^3H]ATP fractions.

[8] = PTH analogue 1 min, mean ± s.e.m., SEM

EC50 (PTH1R [1]; PTH analogue 1 min): 316 nM | EC50 (PTH1R [1]; PTH analogue 30 min): 63.1 nM | EC50 (PTH1R [2]; [8]): 126 nM | EC50 (PTH1R [2]; PTH analogue 30 min): 50.1 nM
Compound: VSEIQLMHNLGKHLNSMERVEWLRKKLQDVHNFVALG [PTH(2-38)]

pEC50 (adenylyl cyclase; NKH477 2 min): 5.0 ± 0.3 /M | pEC50 (adenylyl cyclase; NKH477 5 min): 5.0 ± 0.1 /M | pEC50 (adenylyl cyclase; NKH477 15 min): 5.0 ± 0.1 /M | pEC50 (adenylyl cyclase; NKH477 30 min): 6.0 ± 0.1 /M
Compound: C=C[C@@]1(C)CC(=O)[C@]2(O)[C@@]3(C)[C@@H](O)CCC(C)(C)[C@@H]3C(OC(=O)CCN(C)C)[C@H](OC(C)=O)[C@@]2(C)O1.Cl (stereo partly drawn) [NKH477, N,N-dimethyl-(3R,4aR,5S,6aS,10S,10aR,10bS)-5-(acetyloxy)-3-ethenyldodecahydro-10,10b-dihydroxy-3,4a,7,7,10a-pentamethyl-1-oxo-1H-naphtho[2,1-b]pyran-6-yl ester β-alanine hydrochloride]
Peak [Ca2+]c (adenylyl cyclase; 2 min): 331 ± 20 nM | Peak [Ca2+]c (adenylyl cyclase; 30 min): 256 ± 12 nM | Δ[Ca2+]c (maximal potentiated increase) (adenylyl cyclase; NKH477 2 min): 257 ± 3 nM | Δ[Ca2+]c (maximal potentiated increase) (adenylyl cyclase; NKH477 5 min): 225 ± 9 nM | Δ[Ca2+]c (maximal potentiated increase) (adenylyl cyclase; NKH477 15 min): 155 ± 10 nM | Δ[Ca2+]c (maximal potentiated increase) (adenylyl cyclase; NKH477 30 min): 124 ± 24 nM

direct Ca2+ signal evoked by the analogue alone (PTH1R [4]): directly evoked small Ca^2+ signals
Compound: SVSEIQLMHNLGKHLNSMERVEWLRKKLQDV [PTH(1-31), analogue of PTH that stimulates adenylyl cyclase]
Signalling to AC from internalized PTH1R (PTH1R [3]): Yes

Compound: C[N+](C)(C)CCOC(N)=O [carbachol, Carbamylcholine chloride]
transfected cells responding with discernible FRET changes (HEK-PR1 cells [5]): 52±2%

Compound: Nc1ncnc2c1nc(Br)n2[C@@H]1O[C@@H]2COP(=O)(O)O[C@H]2[C@H]1O [8-Br-cAMP]
Peak [Ca2+]c (HEK-PR1 cells [6]; 5 min): 386 ± 21 nM | Peak [Ca2+]c (HEK-PR1 cells [6]; 30 min): 222 ± 24 nM | pEC50 (HEK-PR1 cells [6]; 8-Br-cAMP 5 min): 3.5 ± 0.1 /M | Δ[Ca2+]c (maximal potentiated increase) (HEK-PR1 cells [6]; 8-Br-cAMP 5 min): 207 ± 7 nM | pEC50 (HEK-PR1 cells [6]; 8-Br-cAMP 30 min): 3.7 ± 0.1 /M | Δ[Ca2+]c (maximal potentiated increase) (HEK-PR1 cells [6]; 8-Br-cAMP 30 min): 113 ± 5 nM

Compound: CC(C)(C)c1cc(C(=O)C(C#N)=NNc2cccc(Cl)c2)no1 [ESI-09, 3-[5-(tert-butyl)isoxazol-3-yl]-2-[2-(3-chlorophenyl)hydrazono]-3-oxopropanenitril]
effect on Ca2+ signals evoked by carbachol alone (EPAC1 and EPAC2; ESI-09 10 µM, 5 min): no significant effect | effect on concentration-dependent potentiation by PTH(1-34) of carbachol-evoked Ca2+ signals (EPAC1 and EPAC2; ESI-09 10 µM, 5 min): no significant effect | effect on small Ca2+ signals directly evoked by high concentrations of PTH(1-34) (EPAC1 and EPAC2; ESI-09 10 µM, 5 min): no significant effect | effect on potentiation of carbachol-evoked Ca2+ signals by 8-Br-cAMP (EPAC1 and EPAC2; ESI-09 10 µM, added 5 min before 8-Br-cAMP): unaffected | effect on carbachol-evoked Ca2+ release (EPAC1 and EPAC2; higher concentrations of ESI-09 (50 µM) or more prolonged treatments (15 min)): directly inhibited carbachol-evoked Ca^2+ release

Compound: PTH(3-34): PTH analogue not used in this study, included for comparison with earlier work (SEIQLMHNLGKHLNSMERVEWLRKKLQDVHNF; Parathyroid hormone; UniProt P01270 34-65, looked up, fragment)
Signalling to AC from internalized PTH1R (PTH1R [3]): No | Gq (PLC) (PTH1R [7]): Inactive

EC50 (PTH1R [1]; PTH analogue 1 min): 794 nM | EC50 (PTH1R [1]; PTH analogue 30 min): 200 nM | EC50 (PTH1R [2]; [8]): 200 nM | EC50 (PTH1R [2]; PTH analogue 30 min): 39.8 nM
Compound: CC[C@H](C)[C@H](NC(=O)[C@H](CCC(=O)O)NC(=O)[C@H](CO)NC(=O)[C@@H](NC(=O)[C@@H](N)Cc1ccc(O)cc1)C(C)C)C(=O)N[C@@H](CCC(N)=O)C(=O)N[C@@H](CC(C)C)C(=O)N[C@@H](CCSC)C(=O)N[C@@H](Cc1c[nH]cn1)C(=O)N[C@@H](CC(N)=O)C(=O)N[C@@H](CC(C)C)C(=O)NCC(=O)N[C@@H](CCCCN)C(=O)N[C@@H](Cc1c[nH]cn1)C(=O)N[C@@H](CC(C)C)C(=O)N[C@@H](CC(N)=O)C(=O)N[C@@H](CO)C(=O)N[C@@H](CCSC)C(=O)N[C@@H](CCC(=O)O)C(=O)N[C@@H](CCCNC(=N)N)C(=O)N[C@H](C(=O)N[C@@H](CCC(=O)O)C(=O)N[C@@H](Cc1c[nH]c2ccccc12)C(=O)N[C@@H](CC(C)C)C(=O)N[C@@H](CCCNC(=N)N)C(=O)N[C@@H](CCCCN)C(=O)N[C@@H](CCCCN)C(=O)N[C@@H](CC(C)C)C(=O)N[C@@H](CCC(N)=O)C(=O)N[C@@H](CC(=O)O)C(=O)N[C@H](C(=O)N[C@@H](Cc1c[nH]cn1)C(=O)N[C@@H](CC(N)=O)C(=O)N[C@@H](Cc1ccccc1)C(=O)O)C(C)C)C(C)C [Tyr1PTH(1-34)]

Compound: Cl.Cl.O=S(=O)(NCCNCC=Cc1ccc(Br)cc1)c1cccc2cnccc12 [H89, N-[2-[[3-(4-bromophenyl)-2-propenyl]amino]ethyl]-5-isoquinolinesulfonamide dihydrochloride]
effect of PKA inhibition on acute and sustained effects of PTH(1-34), NKH477 or 8-Br-cAMP on carbachol-evoked Ca2+ signals (PKA): no effect | intracellular cAMP in H89-treated cells relative to matched control cells (PKA; 3 µM PTH(1-34) for 1 min): 95±0.1% | intracellular cAMP in H89-treated cells relative to matched control cells (PKA; 3 µM PTH(1-34) for 60 min): 98±0.2%

Reference: publication PMC4294780, “Sustained signalling by PTH modulates IP3 accumulation and IP3 receptors through cyclic AMP junctions” (Journal of Cell Science, 2015)
